Literature values, collected in publication PMC3598812, “Evaluation of Anti-Hyperalgesic and Analgesic Effects of Two Benzodiazepines in Human Experimental Pain: A Randomized Placebo-Controlled Study” (PLoS ONE, 2013).

Experiments:
[1] = trial protocol, cited from earlier work
patients / volunteers = details: placebo-controlled, double-blind trial, 114 outpatients with anxiety; mean doses 59 mg clobazam daily, 25 mg diazepam daily; ref Micromedex 2009; cited from earlier work
healthy male subjects = test system: healthy male subjects; parameters: method as in PMID 19038771; details: capsaicin model, previous study; standard deviation 11.54; cited from earlier work

**Q.** Which t1/2 ([1]; iv) does the source give for CCOC(=O)c1ncn2c1CN(C)C(=O)c1cc(F)ccc1-2 [Flumazenil] here?
**A.** The t1/2 was “about 50 minutes”.

**Q.** For O=C1CC(=O)N(c2ccccc2)c2cc(Cl)ccc2N1 [N-desmethylclobazam], which “Half life (t1/2)” value ([1]; drug background) is on record?
**A.** The value was 50 h.

**Q.** With CN1C(=O)CN=C(c2ccccc2)c2cc(Cl)ccc21 [diazepam] as the compound, how does the “Dizziness, share of treated patients” value (patients / volunteers) read?
**A.** The value was 11%.

**Q.** What about the “Sedation, share of treated patients” value (patients / volunteers) of the same compound?
**A.** The value was 44%.

**Q.** For CC(C)C[C@H](CN)CC(=O)O [pregabalin], which “Reduction in the area of hyperalgesia” value (healthy male subjects) is on record?
**A.** Its value is 10.91 cm^2.
